Assay results taken from US20120027720A1, “PEPTIDE CONJUGATES” (priority 2008, published 2012).
Where no end group is shown, it is not given here. [ ]: non-standard residue; d: D form. dAllylGly = C=CC[C@@H](N)C(=O)O; AllylGly = C=CC[C@H](N)C(=O)O

How the values were obtained:
CaCo2 monolayers [1] = experiment: Epithelial flux of Lucifer Yellow through cell monolayer; type: cell-based; parameters: key to Enhanced LY permeability: + indicates an enhancement of the permeability of the tight junctions were observed; − indicates no enhancement of permeability was observed; details: Lucifer Yellow flux, Caco-2 monolayer
Description: (§1) Agonists of tight junctions can be identified by their ability to enhance the flux of compounds (e.g. ions, Lucifer Yellow) through a cell monolayer that comprises tight junctions; or by their ability to reduce TEER across a cell monolayer that comprises tight junctions. Treatment of CaCo2 monolayers with peptide FCIGRL (SEQ ID NO: 1) led to a 51-fold enhancement of Lucifer Yellow permeability through CaCo2 monolayers compared to vehicle alone. Treatment of CaCo2 monolayers with peptide FCIGRL led to a 16-fold decrease in TEER across CaCo2 monolayers compared to vehicle alone.
(§2) Determination of TEER and Lucifer Yellow Flux
(§3) Prepare Modified Hank's Balanced Salt Solution (MHBSS) by obtaining 1 L bottle of HBSS removing 10 ml of HBSS and replacing it with 10 ml HEPES buffer pH 7.0. Adjust pH to 7.4±0.1 using concentrated NaOH (10N).
(§4) Remove Caco-2 cells from incubator, grown on 12-well, […], polycarbonate Transwell® filters (Corning) and record passage#, date cells seeded and age in days.
(§5) Aspirate cell culture medium from both the apical (AP) and basolateral (BL) compartments, replacing with 0.5 ml and 1.5 ml of MHBSS, respectively. Incubate cells at 37° C. for 30 minutes.
(§6) Aspirate solution from the apical compartment of each filter (n=3 per condition) and replace with 0.5 ml of control and test solutions containing Lucifer Yellow and test compound if appropriate.
(§7) Place all plates into incubator set at 37° C. (±0.2), 50 RPM (±5) for a total of 180 minutes.
At t=60, 120 and 180 minutes remove 100 μl from each basolateral compartment and place it in a 96-well plate for Lucifer Yellow analysis, replace with 100 μl of MHBSS.
Make a Lucifer Yellow standard curve with the following dilutions (7500 μM, 3750 μM, 750 μM, 375 μM, 75 μM, 37.5 μM, 7.5 μM, 3.75 μM, 0.75 μM) and pipette […] of each into a 96-well plate except for the first three standards mentioned above which require a 1:10 dilutions prior to transferring to the 96-well plate.
Harvest the remaining start solutions and what is left in each apical compartment into 1.5 ml vials. Freeze at −20° C. for future analysis.
Analyze each 96-well plate in a Tecan Spectra Fluor Plus using Magellan at 485 and 535 nm.
(§8) Cells: Caco-2 cells passage 40-60 grown on Transwell® plates for 21-28 days
(§9) Culture Medium: DMEM supplemented with 10% fetal bovine serum, 1% NEAA, 1% Penn/Strep
(§10) Buffers: Hank's Balanced Salt Solution (HBSS) without calcium and magnesium
(§11) Flasks: 100×20 mm Tissue culture dish Falcon.
(§12) Plates: 12 well polycarbonate Transwell® filters; 0.3 uM pore size

CaCo2 monolayers [2] = experiment: Trans Epithelial Electric Resistance (TEER) across cell monolayer; type: cell-based; parameters: key to Reduced TEER: + indicates an enhancement of the permeability of the tight junctions were observed; − indicates no enhancement of permeability was observed; details: Caco-2 monolayer
Description: as §1, §2, §3, §4, §5
Using the MilliCell®-ERS instrument (Millipore), measure and record the transepithelial electrical resistance (TEER) across each filter and record.
as §6, §7
At t=30, 60, 120 and 180 minutes, measure and record the transepithelial electrical resistance (TEER) across each filter using the MilliCell-ERS instrument.
as §8, §9, §10, §11, §12

Row | Substance | Enhanced LY permeability (CaCo2 monolayers [1]) | Reduced TEER (CaCo2 monolayers [2])
1 | 183 (F[AllylGly]IGRL-OH; N-terminus assumed; SMILES C=CC[C@H](NC(=O)[C@@H](N)Cc1ccccc1)C(=O)N[C@H](C(=O)NCC(=O)N[C@@H](CCCNC(=N)N)C(=O)N[C@@H](CC(C)C)C(=O)O)[C@@H](C)CC) [compound 183] | + | +
2 | 184 (F[AllylGly]IGR-NH2; N-terminus assumed; SMILES C=CC[C@H](NC(=O)[C@@H](N)Cc1ccccc1)C(=O)N[C@H](C(=O)NCC(=O)N[C@@H](CCCNC(=N)N)C(N)=O)[C@@H](C)CC) [compound 184] | − | −
3 | 185 (F[dAllylGly]IGR-NH2; N-terminus assumed; SMILES C=CC[C@@H](NC(=O)[C@@H](N)Cc1ccccc1)C(=O)N[C@H](C(=O)NCC(=O)N[C@@H](CCCNC(=N)N)C(N)=O)[C@@H](C)CC) [compound 185] | − | −
4 | 186 (M[AllylGly]IGRL-NH2; N-terminus assumed; SMILES C=CC[C@H](NC(=O)[C@@H](N)CCSC)C(=O)N[C@H](C(=O)NCC(=O)N[C@@H](CCCNC(=N)N)C(=O)N[C@@H](CC(C)C)C(N)=O)[C@@H](C)CC) [compound 186] | − | −
5 | 187 (Q[AllylGly]IGRL-NH2; N-terminus assumed; SMILES C=CC[C@H](NC(=O)[C@@H](N)CCC(N)=O)C(=O)N[C@H](C(=O)NCC(=O)N[C@@H](CCCNC(=N)N)C(=O)N[C@@H](CC(C)C)C(N)=O)[C@@H](C)CC) [compound 187] | − | −
6 | 188 (L[AllylGly]IGRL-NH2; N-terminus assumed; SMILES C=CC[C@H](NC(=O)[C@@H](N)CC(C)C)C(=O)N[C@H](C(=O)NCC(=O)N[C@@H](CCCNC(=N)N)C(=O)N[C@@H](CC(C)C)C(N)=O)[C@@H](C)CC) [compound 188] | − | −
7 | 189 (S[AllylGly]IGRL-NH2; N-terminus assumed; SMILES C=CC[C@H](NC(=O)[C@@H](N)CO)C(=O)N[C@H](C(=O)NCC(=O)N[C@@H](CCCNC(=N)N)C(=O)N[C@@H](CC(C)C)C(N)=O)[C@@H](C)CC) [compound 189] | − | −
8 | 190 (T[AllylGly]IGRL-NH2; N-terminus assumed; SMILES C=CC[C@H](NC(=O)[C@@H](N)[C@@H](C)O)C(=O)N[C@H](C(=O)NCC(=O)N[C@@H](CCCNC(=N)N)C(=O)N[C@@H](CC(C)C)C(N)=O)[C@@H](C)CC) [compound 190] | − | −
9 | 191 (E[AllylGly]IGRL-NH2; N-terminus assumed; SMILES C=CC[C@H](NC(=O)[C@@H](N)CCC(=O)O)C(=O)N[C@H](C(=O)NCC(=O)N[C@@H](CCCNC(=N)N)C(=O)N[C@@H](CC(C)C)C(N)=O)[C@@H](C)CC) [compound 191] | − | −
10 | 192 (V[AllylGly]IGRL-NH2; N-terminus assumed; SMILES C=CC[C@H](NC(=O)[C@@H](N)C(C)C)C(=O)N[C@H](C(=O)NCC(=O)N[C@@H](CCCNC(=N)N)C(=O)N[C@@H](CC(C)C)C(N)=O)[C@@H](C)CC) [compound 192] | − | −
11 | 193 (Y[AllylGly]IGRL-NH2; N-terminus assumed; SMILES C=CC[C@H](NC(=O)[C@@H](N)Cc1ccc(O)cc1)C(=O)N[C@H](C(=O)NCC(=O)N[C@@H](CCCNC(=N)N)C(=O)N[C@@H](CC(C)C)C(N)=O)[C@@H](C)CC) [compound 193] | − | −
12 | 194 (G[AllylGly]IGRL-NH2; N-terminus assumed; SMILES C=CC[C@H](NC(=O)CN)C(=O)N[C@H](C(=O)NCC(=O)N[C@@H](CCCNC(=N)N)C(=O)N[C@@H](CC(C)C)C(N)=O)[C@@H](C)CC) [compound 194] | − | −
13 | 195 (D[AllylGly]IGRL-NH2; N-terminus assumed; SMILES C=CC[C@H](NC(=O)[C@@H](N)CC(=O)O)C(=O)N[C@H](C(=O)NCC(=O)N[C@@H](CCCNC(=N)N)C(=O)N[C@@H](CC(C)C)C(N)=O)[C@@H](C)CC) [compound 195] | − | −
14 | 196 (W[AllylGly]IGRL-NH2; N-terminus assumed; SMILES C=CC[C@H](NC(=O)[C@@H](N)Cc1c[nH]c2ccccc12)C(=O)N[C@H](C(=O)NCC(=O)N[C@@H](CCCNC(=N)N)C(=O)N[C@@H](CC(C)C)C(N)=O)[C@@H](C)CC) [compound 196] | + | −
15 | 197 (K[AllylGly]IGRL-NH2; N-terminus assumed; SMILES C=CC[C@H](NC(=O)[C@@H](N)CCCCN)C(=O)N[C@H](C(=O)NCC(=O)N[C@@H](CCCNC(=N)N)C(=O)N[C@@H](CC(C)C)C(N)=O)[C@@H](C)CC) [compound 197] | − | −
16 | 198 (A[AllylGly]IGRL-NH2; N-terminus assumed; SMILES C=CC[C@H](NC(=O)[C@H](C)N)C(=O)N[C@H](C(=O)NCC(=O)N[C@@H](CCCNC(=N)N)C(=O)N[C@@H](CC(C)C)C(N)=O)[C@@H](C)CC) [compound 198] | − | −
17 | 199 (H[AllylGly]IGRL-NH2; N-terminus assumed; SMILES C=CC[C@H](NC(=O)[C@@H](N)Cc1c[nH]cn1)C(=O)N[C@H](C(=O)NCC(=O)N[C@@H](CCCNC(=N)N)C(=O)N[C@@H](CC(C)C)C(N)=O)[C@@H](C)CC) [compound 199] | − | −
18 | 200 (P[AllylGly]IGRL-NH2; N-terminus assumed; SMILES C=CC[C@H](NC(=O)[C@@H]1CCCN1)C(=O)N[C@H](C(=O)NCC(=O)N[C@@H](CCCNC(=N)N)C(=O)N[C@@H](CC(C)C)C(N)=O)[C@@H](C)CC) [compound 200] | − | −
19 | 201 (R[AllylGly]IGRL-NH2; N-terminus assumed; SMILES C=CC[C@H](NC(=O)[C@@H](N)CCCNC(=N)N)C(=O)N[C@H](C(=O)NCC(=O)N[C@@H](CCCNC(=N)N)C(=O)N[C@@H](CC(C)C)C(N)=O)[C@@H](C)CC) [compound 201] | − | −
20 | 202 (I[AllylGly]IGRL-NH2; N-terminus assumed; SMILES C=CC[C@H](NC(=O)[C@@H](N)[C@@H](C)CC)C(=O)N[C@H](C(=O)NCC(=O)N[C@@H](CCCNC(=N)N)C(=O)N[C@@H](CC(C)C)C(N)=O)[C@@H](C)CC) [compound 202] | − | −
21 | 203 (F[AllylGly]PGRL-NH2; N-terminus assumed; SMILES C=CC[C@H](NC(=O)[C@@H](N)Cc1ccccc1)C(=O)N1CCC[C@H]1C(=O)NCC(=O)N[C@@H](CCCNC(=N)N)C(=O)N[C@@H](CC(C)C)C(N)=O) [compound 203] | − | −
22 | 204 (F[AllylGly]FGRL-NH2; N-terminus assumed; SMILES C=CC[C@H](NC(=O)[C@@H](N)Cc1ccccc1)C(=O)N[C@@H](Cc1ccccc1)C(=O)NCC(=O)N[C@@H](CCCNC(=N)N)C(=O)N[C@@H](CC(C)C)C(N)=O) [compound 204] | + | =
23 | 205 (F[AllylGly]TGRL-NH2; N-terminus assumed; SMILES C=CC[C@H](NC(=O)[C@@H](N)Cc1ccccc1)C(=O)N[C@H](C(=O)NCC(=O)N[C@@H](CCCNC(=N)N)C(=O)N[C@@H](CC(C)C)C(N)=O)[C@@H](C)O) [compound 205] | − | −
24 | 206 (F[AllylGly]LGRL-NH2; N-terminus assumed; SMILES C=CC[C@H](NC(=O)[C@@H](N)Cc1ccccc1)C(=O)N[C@@H](CC(C)C)C(=O)NCC(=O)N[C@@H](CCCNC(=N)N)C(=O)N[C@@H](CC(C)C)C(N)=O) [compound 206] | + | +
